# According to ChEMBL document CHEMBL1201862, “PubChem BioAssay data set” (2004):
# The source made the active and inactive calls.
# Legend:
# Mucolipin-3 = Mucolipin-3 (Homo sapiens, UniProt Q8TDD5); assay: Dose response cell-based high-throughput screening assay for agonists of the transient receptor potential channel ML3 (TRPML3). [Related pubchem assays: 1526, 1424, 1448 ]; format: functional
# Ion channel NompC = Ion channel NompC (Danio rerio, UniProt Q7T1G6); assay: Fluorescence counterscreen assay for TRPML3 agonists: dose response cell-based high-throughput screening assay to identify agonists of the transient receptor potential channel N1 (TRPN1). [Related pubchem assays: 1526, 1424, 1448 ]; format: functional
# [1] = molecular target: T1, Corticotropin-releasing factor receptor 2/Corticotropin-releasing factor-binding protein (Homo sapiens, UniProt P24387+Q13324); assay: Dose Response confirmation of uHTS hits for small molecule antagonists of the CRF-binding protein and CRF-R2 receptor complex.; format: functional; settings: read-out: IC50_Mean
# T1 sequence (Q13324 whole entry): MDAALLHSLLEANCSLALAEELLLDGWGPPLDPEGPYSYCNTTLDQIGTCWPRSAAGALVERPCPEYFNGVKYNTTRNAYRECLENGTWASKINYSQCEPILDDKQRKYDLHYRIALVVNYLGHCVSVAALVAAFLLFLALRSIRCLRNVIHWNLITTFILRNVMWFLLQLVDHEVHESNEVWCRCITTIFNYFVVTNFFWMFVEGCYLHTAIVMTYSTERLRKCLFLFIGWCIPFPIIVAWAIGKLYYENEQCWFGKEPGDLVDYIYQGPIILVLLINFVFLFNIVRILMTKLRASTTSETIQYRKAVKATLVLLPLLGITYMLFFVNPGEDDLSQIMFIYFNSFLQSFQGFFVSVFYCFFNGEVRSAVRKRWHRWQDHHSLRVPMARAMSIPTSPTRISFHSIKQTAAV
# T1 sequence (P24387 whole entry): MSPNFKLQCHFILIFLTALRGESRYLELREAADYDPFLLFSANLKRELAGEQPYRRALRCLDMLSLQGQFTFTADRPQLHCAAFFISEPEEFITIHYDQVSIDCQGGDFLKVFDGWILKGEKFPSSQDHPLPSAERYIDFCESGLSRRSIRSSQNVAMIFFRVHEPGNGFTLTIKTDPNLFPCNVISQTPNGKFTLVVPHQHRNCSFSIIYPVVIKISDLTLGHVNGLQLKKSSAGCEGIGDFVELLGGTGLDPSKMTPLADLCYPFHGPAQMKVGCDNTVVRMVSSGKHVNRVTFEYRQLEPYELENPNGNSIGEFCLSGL
# [2] = molecular target: T1, Corticotropin-releasing factor receptor 2/Corticotropin-releasing factor-binding protein; assay: activators of CRF receptor 2 with binding protein – uHTS hits, confirmation (AID 602473); format: functional; settings: read-out: EC50_Mean
# [3] = blockers of CRF-binding protein–CRF-R2 complex – cell-based, uHTS hits, 384-well, dose response (AID 651639); format: functional, Homo sapiens; settings: read-out: IC50_Mean
# Estrogen receptor = molecular target: T2, Estrogen receptor (Homo sapiens, UniProt P03372); assay: ERα coactivator recruitment enhancers – biochemical, TR-FRET, ERα LBD, dose response (AID 737)
# T2 sequence (P03372 whole entry): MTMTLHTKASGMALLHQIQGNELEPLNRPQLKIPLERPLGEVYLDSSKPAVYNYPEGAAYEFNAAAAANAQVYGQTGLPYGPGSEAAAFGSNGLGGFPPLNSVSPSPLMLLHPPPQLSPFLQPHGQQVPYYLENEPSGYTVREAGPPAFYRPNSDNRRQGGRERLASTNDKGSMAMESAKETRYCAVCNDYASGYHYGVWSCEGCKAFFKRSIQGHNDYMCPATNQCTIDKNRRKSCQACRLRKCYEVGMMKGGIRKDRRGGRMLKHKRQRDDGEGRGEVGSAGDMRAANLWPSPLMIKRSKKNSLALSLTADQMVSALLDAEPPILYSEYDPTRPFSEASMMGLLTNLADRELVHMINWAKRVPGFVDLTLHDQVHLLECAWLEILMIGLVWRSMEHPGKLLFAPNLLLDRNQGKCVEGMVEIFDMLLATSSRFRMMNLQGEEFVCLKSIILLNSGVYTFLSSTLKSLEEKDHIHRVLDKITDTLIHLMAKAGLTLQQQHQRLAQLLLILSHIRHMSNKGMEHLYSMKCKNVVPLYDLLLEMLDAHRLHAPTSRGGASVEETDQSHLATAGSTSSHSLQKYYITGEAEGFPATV
# [4] = molecular target: T3, Voltage-gated N-type calcium channel alpha-1B subunit/Amyloid beta A4 precursor protein-binding family A member 1 (Homo sapiens, UniProt Q00975+Q02410); format: protein assay
# T3 sequence (Q00975 whole entry): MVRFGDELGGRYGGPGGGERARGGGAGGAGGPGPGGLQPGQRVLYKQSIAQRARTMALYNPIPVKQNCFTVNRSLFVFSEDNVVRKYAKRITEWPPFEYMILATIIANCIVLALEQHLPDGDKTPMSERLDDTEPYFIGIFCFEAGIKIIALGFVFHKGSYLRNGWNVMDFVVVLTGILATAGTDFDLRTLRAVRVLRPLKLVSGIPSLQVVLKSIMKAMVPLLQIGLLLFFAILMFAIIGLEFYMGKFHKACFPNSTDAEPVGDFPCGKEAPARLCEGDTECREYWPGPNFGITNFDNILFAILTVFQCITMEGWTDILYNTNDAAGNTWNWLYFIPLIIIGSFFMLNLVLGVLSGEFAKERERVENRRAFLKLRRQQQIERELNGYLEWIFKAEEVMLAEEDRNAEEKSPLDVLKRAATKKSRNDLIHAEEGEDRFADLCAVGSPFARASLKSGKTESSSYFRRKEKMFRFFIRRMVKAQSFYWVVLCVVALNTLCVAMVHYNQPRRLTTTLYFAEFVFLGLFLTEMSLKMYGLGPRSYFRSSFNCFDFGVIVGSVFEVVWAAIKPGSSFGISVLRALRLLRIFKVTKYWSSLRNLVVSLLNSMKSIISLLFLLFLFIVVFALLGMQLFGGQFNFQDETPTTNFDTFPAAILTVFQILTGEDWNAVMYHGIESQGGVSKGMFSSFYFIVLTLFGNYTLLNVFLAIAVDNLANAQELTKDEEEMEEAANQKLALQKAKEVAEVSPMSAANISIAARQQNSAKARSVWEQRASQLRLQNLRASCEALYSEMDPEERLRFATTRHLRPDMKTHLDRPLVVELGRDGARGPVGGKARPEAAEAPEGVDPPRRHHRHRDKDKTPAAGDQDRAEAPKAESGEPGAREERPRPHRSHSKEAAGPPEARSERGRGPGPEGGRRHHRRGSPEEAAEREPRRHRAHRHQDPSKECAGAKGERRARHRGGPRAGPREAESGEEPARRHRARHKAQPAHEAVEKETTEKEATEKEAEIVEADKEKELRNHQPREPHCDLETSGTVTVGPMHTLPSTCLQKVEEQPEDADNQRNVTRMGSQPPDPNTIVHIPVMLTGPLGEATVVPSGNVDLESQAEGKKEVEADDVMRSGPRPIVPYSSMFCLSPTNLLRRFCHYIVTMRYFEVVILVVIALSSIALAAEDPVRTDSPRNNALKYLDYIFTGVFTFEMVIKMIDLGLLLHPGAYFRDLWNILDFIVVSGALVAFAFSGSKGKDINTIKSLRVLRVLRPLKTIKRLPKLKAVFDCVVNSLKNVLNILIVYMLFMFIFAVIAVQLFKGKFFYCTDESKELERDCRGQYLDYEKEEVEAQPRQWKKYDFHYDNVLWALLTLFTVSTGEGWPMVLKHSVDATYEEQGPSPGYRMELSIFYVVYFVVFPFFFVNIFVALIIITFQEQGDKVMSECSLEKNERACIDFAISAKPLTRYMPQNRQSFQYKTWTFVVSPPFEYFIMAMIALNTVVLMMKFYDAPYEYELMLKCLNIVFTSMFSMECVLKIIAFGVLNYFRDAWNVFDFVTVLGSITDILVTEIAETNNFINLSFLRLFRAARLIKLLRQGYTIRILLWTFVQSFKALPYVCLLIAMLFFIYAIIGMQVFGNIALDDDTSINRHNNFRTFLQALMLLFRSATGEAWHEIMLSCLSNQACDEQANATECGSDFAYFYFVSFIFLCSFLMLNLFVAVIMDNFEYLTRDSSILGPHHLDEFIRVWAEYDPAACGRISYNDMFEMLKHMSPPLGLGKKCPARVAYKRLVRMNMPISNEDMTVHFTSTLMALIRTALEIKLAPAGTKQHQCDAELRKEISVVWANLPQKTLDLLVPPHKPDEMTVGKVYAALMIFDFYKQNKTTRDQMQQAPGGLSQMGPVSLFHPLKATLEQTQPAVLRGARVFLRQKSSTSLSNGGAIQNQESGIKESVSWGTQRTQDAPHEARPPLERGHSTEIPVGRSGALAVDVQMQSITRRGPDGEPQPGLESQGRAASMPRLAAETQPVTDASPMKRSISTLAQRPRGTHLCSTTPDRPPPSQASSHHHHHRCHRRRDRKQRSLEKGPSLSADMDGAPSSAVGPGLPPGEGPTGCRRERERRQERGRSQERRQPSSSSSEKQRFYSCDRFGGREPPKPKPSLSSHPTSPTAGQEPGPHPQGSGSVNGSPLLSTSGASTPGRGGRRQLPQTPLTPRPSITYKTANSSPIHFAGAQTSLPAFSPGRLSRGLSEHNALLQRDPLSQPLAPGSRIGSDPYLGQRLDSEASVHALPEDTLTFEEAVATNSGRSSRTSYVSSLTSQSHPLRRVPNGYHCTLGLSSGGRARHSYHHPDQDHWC
# T3 sequence (Q02410 whole entry): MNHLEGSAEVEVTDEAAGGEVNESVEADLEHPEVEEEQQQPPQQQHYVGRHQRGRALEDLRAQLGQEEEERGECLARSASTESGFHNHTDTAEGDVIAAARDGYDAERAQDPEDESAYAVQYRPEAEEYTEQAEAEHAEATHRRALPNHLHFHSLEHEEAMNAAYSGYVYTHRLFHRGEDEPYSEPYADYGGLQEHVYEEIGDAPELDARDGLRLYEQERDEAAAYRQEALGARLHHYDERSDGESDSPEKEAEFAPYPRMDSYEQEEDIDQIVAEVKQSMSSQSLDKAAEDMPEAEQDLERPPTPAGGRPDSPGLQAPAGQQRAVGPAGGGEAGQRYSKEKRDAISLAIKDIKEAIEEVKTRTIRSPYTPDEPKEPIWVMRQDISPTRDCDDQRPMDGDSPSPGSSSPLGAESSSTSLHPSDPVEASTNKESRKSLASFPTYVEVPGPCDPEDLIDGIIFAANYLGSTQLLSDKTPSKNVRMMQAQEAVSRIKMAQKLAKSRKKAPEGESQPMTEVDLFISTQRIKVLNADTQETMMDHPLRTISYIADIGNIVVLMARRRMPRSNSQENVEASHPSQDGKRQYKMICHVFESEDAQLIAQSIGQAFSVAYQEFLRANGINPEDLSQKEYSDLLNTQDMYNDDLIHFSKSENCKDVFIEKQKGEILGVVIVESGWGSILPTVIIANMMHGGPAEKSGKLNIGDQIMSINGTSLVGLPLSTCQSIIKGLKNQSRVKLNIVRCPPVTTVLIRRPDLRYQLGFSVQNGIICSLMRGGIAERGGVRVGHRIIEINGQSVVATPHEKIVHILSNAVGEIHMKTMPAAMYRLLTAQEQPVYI
# [5] = molecular target: T4, Mannose-6-phosphate isomerase (Homo sapiens, UniProt P34949); assay: MPI enzyme activity inhibition – biochemical, fluorescence intensity, coupled assay, primary screen (AID 1209)
# T4 sequence (P34949 whole entry): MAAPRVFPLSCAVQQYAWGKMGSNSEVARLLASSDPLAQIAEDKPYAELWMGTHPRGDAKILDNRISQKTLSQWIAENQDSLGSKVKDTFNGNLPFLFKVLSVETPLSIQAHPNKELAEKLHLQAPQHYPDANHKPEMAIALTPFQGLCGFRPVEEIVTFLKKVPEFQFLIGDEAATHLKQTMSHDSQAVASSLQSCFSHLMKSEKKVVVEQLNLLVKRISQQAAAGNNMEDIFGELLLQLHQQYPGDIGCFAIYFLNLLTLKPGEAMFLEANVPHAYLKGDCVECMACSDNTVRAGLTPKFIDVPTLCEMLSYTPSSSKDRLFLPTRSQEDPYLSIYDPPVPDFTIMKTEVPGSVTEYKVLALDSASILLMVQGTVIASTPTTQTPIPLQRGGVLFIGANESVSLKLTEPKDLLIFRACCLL
# [6] = molecular target: T3, Voltage-gated N-type calcium channel alpha-1B subunit/Amyloid beta A4 precursor protein-binding family A member 1; format: protein assay; remark: listed apart in the source
# [7] = molecular target: Glucose-6-phosphate 1-dehydrogenase (Homo sapiens, UniProt P11413); assay: inhibition of Homo sapiens G6PD, dose series – biochemical, fluorescence, selectivity assay for P. falciparum G6PD inhibitor project, dose response (AID 504792); format: functional
# Vero = assay: mammalian cell viability reduction – secondary assay, cytotoxicity control for West Nile virus antiviral project, dose response (AID 1650); format: functional; settings: Chlorocebus sabaeus
# [8] = CCR5-tropic HIV-1 fusion blockers – cell-based, CCR5-tropic Env, dose response (AID 2279); format: functional
# Genome polyprotein = Genome polyprotein (dengue virus type 2, UniProt P29990); assay: flavivirus cap methylation enzyme inhibition – biochemical, confirmation dose response, primary screen (AID 588689); format: functional
# [9] = molecular target: Sphingosine 1-phosphate receptor 2 (Homo sapiens, UniProt O95136); assay: Dose Response Cell Based Assay for Agonists of the S1P2 Receptor of Purchased Analogues. [Related pubchem assays: 729, 843, 854, 736 ]; format: functional
# Sphingosine 1-phosphate receptor 2, sequence (O95136 whole entry): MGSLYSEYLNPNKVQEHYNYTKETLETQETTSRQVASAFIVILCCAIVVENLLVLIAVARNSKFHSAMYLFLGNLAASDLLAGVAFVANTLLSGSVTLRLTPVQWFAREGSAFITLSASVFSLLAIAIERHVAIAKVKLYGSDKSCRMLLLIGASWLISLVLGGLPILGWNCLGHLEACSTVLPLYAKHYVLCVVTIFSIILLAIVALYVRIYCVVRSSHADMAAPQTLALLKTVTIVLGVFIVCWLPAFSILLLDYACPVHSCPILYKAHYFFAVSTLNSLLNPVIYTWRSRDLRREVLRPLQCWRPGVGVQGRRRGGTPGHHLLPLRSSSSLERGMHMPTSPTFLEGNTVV
# [10] = antiviral protection against BTV-induced cell death – arbovirus, BSR cells, confirmation (AID 1250); format: functional;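 note: protection from viral cytopathic effect measured as cell viability by ATP luminescence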
# [11] = Luminescence Cell-Based Dose Confirmation HTS to Identify Inhibitors of Polyadenylation.; format: functional
# [12] = molecular target: T5, Dual specificity protein phosphatase 6 (Rattus norvegicus, UniProt Q64346); assay: inhibition of rat DUSP6 enzyme activity – biochemical, in vitro, primary screen (AID 425)
# T5 sequence (Q64346 whole entry): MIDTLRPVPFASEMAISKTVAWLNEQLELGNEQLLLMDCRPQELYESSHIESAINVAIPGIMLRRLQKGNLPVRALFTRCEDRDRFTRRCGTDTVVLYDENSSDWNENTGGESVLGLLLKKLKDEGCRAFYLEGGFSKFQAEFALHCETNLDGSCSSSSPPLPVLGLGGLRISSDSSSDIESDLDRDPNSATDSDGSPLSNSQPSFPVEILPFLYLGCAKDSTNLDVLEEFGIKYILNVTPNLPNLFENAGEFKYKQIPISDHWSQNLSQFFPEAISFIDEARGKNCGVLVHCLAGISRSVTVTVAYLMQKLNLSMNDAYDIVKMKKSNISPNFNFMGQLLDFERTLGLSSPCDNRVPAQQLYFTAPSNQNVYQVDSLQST
# [13] = A High Throughput Confirmatory Assay used to Identify Novel Compounds that Inhibit Mycobacterium Tuberculosis in the absence of Glycerol.; format: functional
# [14] = microbe, parasite or virus in culture; format: functional; settings: Mycobacterium tuberculosis
# [15] = molecular target: Heat shock protein HSP 90-alpha (Homo sapiens, UniProt P07900); format: functional, organism-based
# [16] = molecular target: Protein-tyrosine kinase 2-beta (Homo sapiens, UniProt Q14289);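 note: potency of inhibitors of PYK2 kinase phosphorylation of poly-GT substrate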
# Cytochrome P450 2C9 = Cytochrome P450 2C9 (Homo sapiens, UniProt P11712)
# Cytochrome P450 2C9, sequence (P11712 whole entry): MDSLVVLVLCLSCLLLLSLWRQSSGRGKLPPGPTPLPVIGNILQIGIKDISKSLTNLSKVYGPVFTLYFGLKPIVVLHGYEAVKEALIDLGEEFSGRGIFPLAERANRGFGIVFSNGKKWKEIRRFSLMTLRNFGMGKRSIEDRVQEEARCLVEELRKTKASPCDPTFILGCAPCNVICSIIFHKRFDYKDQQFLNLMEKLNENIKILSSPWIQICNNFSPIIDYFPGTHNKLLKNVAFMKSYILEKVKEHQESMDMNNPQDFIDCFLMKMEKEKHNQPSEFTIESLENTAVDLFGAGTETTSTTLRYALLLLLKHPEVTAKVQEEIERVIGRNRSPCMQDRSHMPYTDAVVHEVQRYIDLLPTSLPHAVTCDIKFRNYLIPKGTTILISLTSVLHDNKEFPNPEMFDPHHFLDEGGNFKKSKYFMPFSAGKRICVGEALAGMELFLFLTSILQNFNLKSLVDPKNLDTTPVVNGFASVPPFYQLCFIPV
# [17] = molecular target: Neuropeptide Y receptor type 1 (Homo sapiens, UniProt P25929); format: functional;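 note: HEK293 cells with a CNG channel challenged with NPY then isoproterenol; potency as antagonist that reverses NPY suppression of cAMP signal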
# [18] = molecular target: Neuropeptide Y receptor type 2 (Homo sapiens, UniProt P49146); format: functional, cell-based;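 note: HEK293 cells expressing the receptor and a CNG channel; stimulus was NPY near EC95 followed by isoproterenol to raise cAMP; antagonist potency measured as restoring cAMP signal that NPY suppresses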
# Neuropeptide Y receptor type 2, sequence (P49146 whole entry): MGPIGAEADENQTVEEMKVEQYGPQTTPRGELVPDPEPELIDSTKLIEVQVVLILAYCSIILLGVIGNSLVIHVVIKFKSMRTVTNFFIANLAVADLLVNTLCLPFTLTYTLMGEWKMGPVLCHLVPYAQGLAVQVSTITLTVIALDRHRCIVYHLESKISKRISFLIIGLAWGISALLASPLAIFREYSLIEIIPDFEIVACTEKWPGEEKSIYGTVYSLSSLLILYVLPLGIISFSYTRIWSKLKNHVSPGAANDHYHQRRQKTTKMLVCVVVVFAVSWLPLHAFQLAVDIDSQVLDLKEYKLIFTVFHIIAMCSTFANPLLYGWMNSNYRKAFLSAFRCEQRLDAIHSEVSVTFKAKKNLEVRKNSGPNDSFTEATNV
# Protein skinhead-1 = molecular target: T6, Protein skinhead-1 (Caenorhabditis elegans, UniProt P34707); format: functional
# T6 sequence (P34707 whole entry): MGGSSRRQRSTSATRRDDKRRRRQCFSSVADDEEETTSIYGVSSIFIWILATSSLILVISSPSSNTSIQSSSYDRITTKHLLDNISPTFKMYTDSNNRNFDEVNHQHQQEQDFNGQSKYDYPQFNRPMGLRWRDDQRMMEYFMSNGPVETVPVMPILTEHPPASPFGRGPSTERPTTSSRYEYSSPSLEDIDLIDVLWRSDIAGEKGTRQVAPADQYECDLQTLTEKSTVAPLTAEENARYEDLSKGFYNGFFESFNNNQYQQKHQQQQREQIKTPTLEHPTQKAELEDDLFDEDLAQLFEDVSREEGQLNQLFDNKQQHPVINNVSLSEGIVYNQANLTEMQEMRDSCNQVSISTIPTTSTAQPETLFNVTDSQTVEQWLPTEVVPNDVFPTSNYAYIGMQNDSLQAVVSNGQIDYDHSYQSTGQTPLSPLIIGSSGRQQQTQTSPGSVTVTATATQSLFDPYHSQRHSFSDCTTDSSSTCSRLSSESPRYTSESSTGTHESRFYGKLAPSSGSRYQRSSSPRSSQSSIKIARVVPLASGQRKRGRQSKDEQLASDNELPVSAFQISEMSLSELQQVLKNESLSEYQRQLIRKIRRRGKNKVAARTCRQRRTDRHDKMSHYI
# Mucolipin-3, sequence (Q8TDD5 whole entry): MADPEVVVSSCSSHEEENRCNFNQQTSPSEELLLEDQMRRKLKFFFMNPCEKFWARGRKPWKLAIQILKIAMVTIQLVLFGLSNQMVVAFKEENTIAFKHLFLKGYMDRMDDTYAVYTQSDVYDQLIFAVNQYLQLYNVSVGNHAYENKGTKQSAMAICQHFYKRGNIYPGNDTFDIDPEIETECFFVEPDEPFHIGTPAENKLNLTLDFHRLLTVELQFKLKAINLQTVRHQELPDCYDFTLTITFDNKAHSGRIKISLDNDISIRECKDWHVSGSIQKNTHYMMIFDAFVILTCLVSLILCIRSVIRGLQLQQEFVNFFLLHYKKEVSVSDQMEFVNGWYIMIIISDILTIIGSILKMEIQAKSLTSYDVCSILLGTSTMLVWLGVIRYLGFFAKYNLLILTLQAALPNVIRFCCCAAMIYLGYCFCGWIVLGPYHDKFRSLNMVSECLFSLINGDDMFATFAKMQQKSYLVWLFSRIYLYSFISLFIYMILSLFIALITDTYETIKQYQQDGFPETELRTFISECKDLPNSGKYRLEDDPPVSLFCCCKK
smiles,measurement,setting,value
Cc1ccc(S(=O)(=O)N2CCCCCC2)cc1[N+](=O)[O-],EC50,Mucolipin-3,5.29 µM (active)
same,EC50,Ion channel NompC,> 29.9 µM (not active)
same,IC50,[1],18.3 µM (active)
same,EC50,[2],> 53 µM (inactive)
same,IC50,[3],> 20 µM (inactive)
O=C(Nc1nccs1)c1nc(-c2ccccc2)n(-c2ccccc2)n1,EC50,Estrogen receptor,18.6 µM (active)
COc1ccc(N2CSC3=C(C#N)C(c4cc(OC)c(OC)cc4OC)CC(=O)N3C2)c(OC)c1 (stereo not given),IC50,[4],11.3 µM (active)
same,IC50,[5],4.3 µM (active)
same,IC50,[6],42.3 µM (active)
same,IC50,[7],42.5 µM (inactive)
CC(=O)Nc1cccc(C(=O)/C=C/c2ccc(F)cc2)c1,CC50,Vero,20.6 µM (active)
CCCOc1cccc(C2C(C(=O)c3cc4ccccc4o3)=C(O)C(=O)N2c2cc(C)on2)c1 (stereo not given),IC50,[8],44.5 µM (active)
same,IC50,Genome polyprotein,32.6 µM (active)
Cc1cc(C(=O)CN2C(=O)NC(Cc3ccccc3)C2=O)c(C)n1Cc1ccccc1 (stereo not given),EC50,[9],> 30 µM (not active)
Cc1ccc(C)c(S(=O)(=O)N2CCN(C(C)C(=O)Nc3ccccc3-c3ccccc3)CC2)c1 (stereo not given),IC50,[10],44.1 µM (active)
COc1cc(C2CC(=O)Oc3c(C(CCN4CCOCC4)c4ccc(N(C)C)cc4)c(OC)cc(OC)c32)cc(OC)c1OC (stereo not given),EC50,[11],> 120 µM (not active)
COc1ccc(Cn2c(C)nc3c(c2=O)c2nc4ccccc4nc2n3Cc2ccco2)cc1,IC50,[12],6.78 µM (active)
O=C(OCC(=O)N1CCN(C(=O)c2ccco2)CC1)c1cc(-c2cccc(Br)c2)nc2ccccc12,IC50,[13],> 100 µM (active)
same,CC50,[14],14.4 µM (active)
same,AC50,[15],4.25 µM (active)
COc1ccc(-c2coc3cc4oc(=O)cc(C)c4cc23)cc1F,IC50,[16],12.5 µM (not active)
same,AC50,Cytochrome P450 2C9,5.01 µM (inconclusive)
c1ccc(-c2nc(CSc3nnc(-c4cccs4)o3)cs2)cc1,IC50,[17],12.8 µM (not active)
same,IC50,[18],17.3 µM (not active)
same,IC50,Protein skinhead-1,> 100 µM (inactive)
